Assay results taken from US20180028553A1, “USE OF STING AGONIST AS CANCER TREATMENT” (The University of Chicago, priority 2013, published 2018).
Entries after “also recorded” stand apart in the source; their conditions may differ.

Legend:
[1] = test system: STING pathway (TBK1, IRF3 phosphorylation); assay: Western blot of pTBK1 and pIRF3 in macrophages and BM-DCs after STING agonist; assay type: cell-based, mouse
Description: DMXAA for the same time-points. Proteins were extracted with Triton-X buffer (150 mM sodium chloride, 50 mM Tris, 1% Triton-X, pH 8.0) with proteinase inhibitors (Thermo scientific) and phosphatase inhibitors (Sigma). 30 μg of protein was electrophoresed in 10% SDS-PAGE gels and transferred onto Immobilon-FL membranes (Millipore). Blots were incubated with antibodies specific for phosphorylated TBK1 (Ser172), phosphorylated IRF3 (Ser396), total TBK1, STING and GAPDH (Cell Signaling) or total IRF3 (Invitrogen). Proteins from HEK 293T lines stably expressing STING were extracted with M-PER (Thermo Scientific). 6 μg of protein was loaded onto a 4-12% MES NuPAGE gel (Life Technologies), transferred to nitrocellulose, and probed with anti-HA antibody (Santa Cruz). Anti-rabbit IRDye 680RD label secondary antibody was used for visualization of bands with the Odyssey Imaging system (LI-COR).

B16.SIY tumors = assay type: in vivo
Description: As a comparison, the cyclic dinucleotide compounds from Aduro will be injected into tumors in parallel sets of mice. Tumor volumes are estimated twice a week using the formula described above.
(§1) In vivo tumor experiments. 10^6 of B16-SIY tumor cells, 5×10^4 B16.F10 tumor cells, 10^5 4T1 and CT26, or 10^6 other tumor cells were injected s.c. in 100 μl DPBS or HBSS on the right flank of mice. Following tumor implantation, mice were randomized into treatment groups. […] Measurements of tumors were performed twice per week using calipers, and the tumor volume was calculated with the formula: V=(length×width^2)/2. In some experiments, tumor-free survivors were rechallenged with tumor cells on the opposite flank several weeks after the injection of the primary tumor. Naïve mice were used as controls. For the contralateral experiments, mice were implanted on both flanks and only one tumor was treated. For the B16 melanoma lung metastasis experiments, mice were implanted on the flank with 5×10^4 cells B16.F10 on day 0, and then injected intravenously with 1×10^5 cells on day 7. Lungs were harvested on day 28. Administration of compounds, measurements of tumors and counting of lung tumors were performed in a blinded fashion.

TRAMP-C2 tumors = assay: Intratumoral treatment of TRAMP-C2 tumors; assay type: in vivo, mouse; settings: C57BL/6 mice, single IT dose of 500 μg DMXAA
Description: as §1

4T-1 tumors = assay: Intratumoral treatment of 4T-1 tumors; assay type: in vivo, mouse; settings: BALB/c mice, single IT dose of 500 μg DMXAA
Description: as §1

tumors = settings: background statement; cited from earlier work

Cc1ccc2c(=O)c3cccc(CC(=O)O)c3oc2c1C [DMXAA, 5,6-dimethylXAA (xanthenone-4-acetic acid)]
activation of the STING pathway (pTBK1, pIRF3) ([1]; BM-DC from WT or STING ko mice): same potent activation of the pathway
phosphorylation of TBK1 and IRF3 ([1]; STING deficient macrophages, DMXAA 50 μg/ml): not in STING deficient cells; also recorded: abolished
phosphorylation of TBK1 and IRF3 ([1]; STING^−/− macrophages reconstituted with mSTING-HA, DMXAA): restored phosphorylation of TBK1 and IRF3
phosphorylation of TBK1 and IRF3 ([1]; WT macrophages, DMXAA 50 μg/ml or ML RR-S2 CDA 50 μM): rapid and potent phosphorilation of TBK1 and IRF3; also recorded: phosphorylation of TBK1 and IRF3 was observed
mice that reject the tumors (B16.SIY tumors; WT B6 mice, tumors 100-200 mm3, single intratumoral dose): 80-90%
tumor regression and rejection (B16.SIY tumors; WT mice, single IT dose of 500 μg at day 7): potent tumor regression in all animals and complete tumor rejection in the majority of mice
regression of injected and non-injected secondary tumor (B16.SIY tumors; tumors in both flanks, only one treated IT): Tumor regression was observed in both sites
tumor growth (TRAMP-C2 tumors): significantly reduced the growth
tumor growth (4T-1 tumors): significantly reduced the growth
outcome of clinical trials for the treatment of tumors (tumors): all failed
